# Assay results as given in PMC10368370, “Development of o-aminobenzamide salt derivatives for improving water solubility and anti-undifferentiated gastric cancer” (Frontiers in Pharmacology, 2023).
# Legend:
# MDA-MB-231 = assay: MTT cytotoxicity / anti-proliferation assay; format: cell-based; conditions: MDA-MB-231, MTT, 72 h; read-out: IC50, cancer cell viability
# HCC-1937 = assay: MTT cytotoxicity / anti-proliferation assay; format: cell-based; conditions: HCC-1937, MTT, 72 h; read-out: IC50, cancer cell viability
# [1] = In vivo acute toxicity study; parameters: species or system Kunming mice; conditions: for LD50 at 14 days: both sexes, Kunming, mouse, in vivo
# Protocol: We investigated the toxicity of F8·2HCl when administered in three different ways, and F8·2HCl was all dissolved with normal saline, and the concentration of intravenous and intraperitoneal injection was 8 mg/mL, and the concentration of intragastric administration was 10 mg/mL. Ninety Kunming mice (45 males and 45 females) weighing 18–22 g were divided into 15 groups (n = 6). The doses of F8·2HCl injected by tail vein were 40 mg/kg, 60 mg/kg, 90 mg/kg, 110 mg/kg, 135 mg/kg, 200 mg/kg, 300 mg/kg, 400 mg/kg and 500 mg/kg, respectively. Intraperitoneal injection of different doses of F8·2HCl were 200 mg/kg, 250 mg/kg, 300 mg/kg, 360 mg/kg and 500 mg/kg, respectively. We also added a dose of 600 mg/kg administered by gavage. All drugs administered were dissolved in normal saline. Toxicity was monitored for 14 days. During the monitoring period, the status of mice was observed and their body weight was recorded.
# To evaluate the safety of F8·2HCl in vivo, acute toxicity studies were performed. First, six Kunming mice (half male and half female) were gavage with F8·2HCl at a single dose of 600 mg/kg.
# HGC-27 cells = assay: MTT cytotoxicity / anti-proliferation assay; format: cell-based, human; conditions: HGC-27, MTT, 72 h; read-out: IC50, cancer cell viability
# Protocol: Undifferentiated human gastric cancer cell line (HGC-27) was purchased from the China Center for Type Collection (CCTCC, China) and used with 10% Foetal Bovine Serum (FBS, Gemini, Bio-Product, CA, United States), 1% penicillin streptomycin (PS) and 89% 1,640 medium ([…]) for culture. All cells were incubated at 37°C in a constant temperature incubator containing 95% air and 5% CO2.
# To evaluate the cytotoxicity of F8 and related organic salts on HGC-27 cells, MTT analysis was performed. HGC-27 cells were digested with trypsin, then cells were spread into 96-well plates at a density of 3,000 cells/well and incubated for 12–16 h. After 12 h, the medium in 96-well plates was replaced with compounds containing 1, 0.5, 0.25, 0.125, 0.062, 0.0312 μM for another 72 h. Three days later, 20 μL MTT solution was added and incubated at 37°C for 4 h. Then 150 μL DMSO solution was added to each well after the fluid was removed, and the absorbance was detected by microplate reader. The compound dissolved in DMSO was added to the cell medium so that the final concentration of DMSO was less than 0.4%.
# Infinite proliferation is one of the most prominent features of cancer cells, therefore, we evaluated the anti-proliferation activity of compounds F8 and related organic salts against human gastric carcinoma HGC-27 via MTT assay.
structure (smiles),measurement,setting,value
O=C(NCc1ccc(NC(=O)c2cc(F)ccc2N2CCCC2)cc1)OCc1cccnc1 [F8·2HCl],IC50,MDA-MB-231,47 ± 0.62 µM
same,IC50,HCC-1937,48.81 ± 0.18 µM
same,"HE staining of heart, liver, spleen, lung, kidney",[1]; 200 mg/kg intraperitoneal injection,intact without any lesions
same,"HE staining of heart, liver, spleen, lung, kidney",[1]; 600 mg/kg oral administration,intact without any lesions
same,LD50 at 14 days,"[1]; ip, intraperitoneal injection, KM mice, 14 days",303 mg/kg
same,LD50 at 14 days,"[1]; intravenous injection, KM mice, 14 days",153 mg/kg
same,survival and abnormal reactions,"[1]; single dose 600 mg/kg by gavage, KM mice, 14 days",All the mice survived 14 days without any abnormal reactions
same,IC50,HGC-27 cells,250 ± 10 nM
